From US20220370416A1, “COMPOUNDS AND METHODS FOR TARGETED DEGRADATION OF KRAS” (Arvinas Operations, Inc., priority 2020, published 2022)

How the values were obtained:
[1] = target: T1, KRAS^G12C (Homo sapiens, UniProt P01116, G12C); test: KRAS^G12C engagement and degradation by immunoblot in NCI-H2030 cells; format: cell-based; parameters: MRTX849-VHL bifunctional compounds engage and degrade endogenous KRAS^G12C in NCI-H2030 cells; endogenous in cells; host or cells: NCI-H2030, NCI-H358, MIA PaCa-2, SW1573, NCI-H23; details: for KRAS, two-way ANOVA significance vs DMSO: FIG. 9A
Protocol: (§1) NCI-H2030 (CRL-5914), MIA PaCa-2 (CRL-1420), NCI-H23 (CRL-5800), NCI-H358 (CRL-5807), and HCT-116 (CCL-247) cells were obtained from ATCC, expanded immediately, and frozen down. Vials were thawed and used within 20 passages. SW1573 cells were a gift from Arvinas and were handled in the same manner. NCI-H2030, NCI-H23, and NCI-H358 were cultured in RPMI (ATCC30-2001) supplemented with 10% FBS (Biological Industries; cat. no. S1480) and 1% Penicillin-Streptomycin (ThermoFisher; cat. no. 15140122). HCT-116 cells were maintained in high glucose DMEM (ThermoFisher; cat. no. 11965084) supplemented as above. MIA PaCa-2 cells were cultured in high glucose DMEM supplemented with 10% FBS, 2.5% horse serum (ThermoFisher; cat. no. 26050-088; lot 2109875), and 1% Penicillin-Streptomycin. SW1573 cells were maintained in DMEM/F12 Nutrient Mix with GlutaMAX supplement (ThermoFisher; cat. no. 10565018) with 10% FBS and 1% Penicillin-Streptomycin added. DPBS (ThermoFisher; cat. no. 14190250) was used to wash cells and 0.25% Trypsin-EDTA (ThermoFisher; cat. no. […]) was used to detach cells for passaging. […] The VHL ligand was generously provided by Arvinas.
(§2) Between 2.5×10^5 and 6.0×10^5 cells were seeded into 6-well plates (Corning; cat. no. 353046). The next day, media was removed and cells were treated with 2.5 μM LC-2 for 1, 2, 4, 8, 12, or 24 hours. […] For 24-hour time course experiments, cells were treated at the indicated times and concurrently lysed in RIPA buffer supplemented as described previously. For longer time course experiments and time courses in which cells were treated with LC-2 or LC-2 Epimer, cells were concurrently treated with either compound, then lysed by scraping in RIPA buffer at the indicated time points.
(§3) Between 2.5×10^5 and 5.0×10^5 cells were seeded into 6-well plates. The next day cells were pretreated with DMSO, 500 μM or 1 mM VHL ligand, 1 μM epoxomicin, 1 μM […], or 100 nM […] bafilomycin A1 for 1 hour. Media was then removed and cells were treated with DMSO, 2.5 μM LC-2 plus DMSO, 2.5 μM LC-2 Epimer plus DMSO, or co-treated with 2.5 μM LC-2 and the corresponding competitor/inhibitor. H2030 cells were treated for 4 hours and H23 cells were treated for 24 hours, after which cells were lysed by scraping in RIPA buffer supplemented as described previously.
(§4) Cell lysates were clarified at 21000×g for 15 mins at 4° C. Protein levels were quantified using a 50:1 mixture of bicinchoninic acid solution (Millipore Sigma; cat. no. B9643) and 4% (w/v) copper(II) sulfate solution (Millipore Sigma; cat. no. C2284) incubated at 37° C. for 30 mins. Absorbance values at 560 nm were read on an EnVision 2101 Multilabel Reader (PerkinElmer). Proteins were separated using 26 well Criterion TGX precast 4-15% (cat. no. 5671085) or 8-16% (cat. no. 5671105) gradient midi gels. After separation, proteins were transferred to nitrocellulose or PVDF membranes at 76 V for 2 hours at 4° C. Blots were then blocked in 5% milk in tris-buffered saline with Tween-20 (TBST; 20 mM Tris, 150 mM NaCl, 0.02% Tween-20). After blocking, blots were incubated in primary antibody overnight (12-18 hours) at 4° C. or for 2 hours at room temperature with mild agitation at the manufacturer's indicated dilution in either 5% milk or 5% BSA in TBST. Blots were then washed thrice with TBST for 5 mins at room temperature. After washing, blots were incubated with 1:5,000-1:10,000 of donkey anti-rabbit (GE Life Sciences; NA934) or sheep anti-mouse (GE Life Sciences; NA931) secondary antibody diluted in 5% milk for 1 hour at room temperature with mild agitation. Blots were again washed thrice with TBST for 5 mins. Chemiluminescent signal was generated using Amersham ECL Prime Western Blotting Detection Reagant (GE Life Sciences; cat. no. RPN2232) or SuperSignal West Femto Maximum Sensitivity Substrate (ThermoFisher; cat. no. 34095). Images were obtained using a Bio-Rad ChemiDoc Imager.

[2] = target: T1, KRAS^G12C; test: KRAS^G12C degradation by immunoblot in NCI-H23 cells; format: cell-based; parameters: MRTX849-VHL bifunctional compounds engage and degrade endogenous KRAS^G12C in NCI-H2030 cells; endogenous in cells; host or cells: NCI-H2030, NCI-H358, MIA PaCa-2, SW1573, NCI-H23
Protocol: as §1, §2, §3, §4

[3] = tested on: pErk; details: MIA PaCa-2, 2.5 μM LC-2, 6 and 24 hours
Protocol: Cell lysates were clarified at 21000×g for 15 mins at 4° C. Protein levels were quantified using a 50:1 mixture of bicinchoninic acid solution (Millipore Sigma; cat. no. B9643) and 4% (w/v) copper(II) sulfate solution (Millipore Sigma; cat. no. C2284) incubated at 37° C. for 30 mins. Absorbance values at 560 nm were read on an EnVision 2101 Multilabel Reader (PerkinElmer). Proteins were separated using 26 well Criterion TGX precast 4-15% (cat. no. 5671085) or 8-16% (cat. no. 5671105) gradient midi gels. After separation, proteins were transferred to nitrocellulose or PVDF membranes at 76 V for 2 hours at 4° C. Blots were then blocked in 5% milk in tris-buffered saline with Tween-20 (TBST; 20 mM Tris, 150 mM NaCl, 0.02% Tween-20). […]

[4] = NCI-H2030, homozygous KRAS^G12C

SMILES: C=C(F)C(=O)N1CCN(c2nc(OC[C@@H]3CCCN3CCCOCCC(=O)N[C@H](C(=O)N3C[C@@H](O)C[C@H]3C(=O)NCc3ccc(-c4scnc4C)cc3)C(C)(C)C)nc3c2CCN(c2cccc4cccc(Cl)c24)C3)C[C@@H]1CC#N [LC-2 Epimer, (2S,4S)-1-((S)-2-(3-(3-((S)-2-(((7-(8-chloronaphthalen-1-yl)-4-((S)-3-(cyanomethyl)-4-(2-fluoroacryloyl)piperazin-1-yl)-5,6,7,8-tetrahydropyrido[3,4-d]pyrimidin-2-yl)oxy)methyl)pyrrolidin-1-yl)propoxy)propanamido)-3,3-dimethylbutanoyl)-4-hydroxy-N-(4-(4-methylthiazol-5-yl)benzyl)pyrrolidine-2-carboxamide]
- earliest time KRAS^G12C binding seen ([1]; NCI-H2030, 2.5 μM): 1 h
- KRAS engagement versus degradation ([1]; NCI-H2030, 2.5 μM, 4 hours): only KRAS engagement was observed

SMILES: C=C(F)C(=O)N1CCN(c2nc(OC[C@@H]3CCCN3CCCOCCC(=O)N[C@H](C(=O)N3C[C@H](O)C[C@H]3C(=O)NCc3ccc(-c4scnc4C)cc3)C(C)(C)C)nc3c2CCN(c2cccc4cccc(Cl)c24)C3)C[C@@H]1CC#N [LC-2, (2S,4R)-1-((S)-2-(3-(3-((S)-2-(((7-(8-chloronaphthalen-1-yl)-4-((S)-3-(cyanomethyl)-4-(2-fluoroacryloyl)piperazin-1-yl)-5,6,7,8-tetrahydropyrido[3,4-d]pyrimidin-2-yl)oxy)methyl)pyrrolidin-1-yl)propoxy)propanamido)-3,3-dimethylbutanoyl)-4-hydroxy-N-(4-(4-methylthiazol-5-yl)benzyl)pyrrolidine-2-carboxamide]
- Dmax ([2]; NCI-H23): > 90%
- KRAS, two-way ANOVA significance vs DMSO ([2]; NCI-H23, 0.25 μM, FIG. 9B): * (* p < 0.05)
- duration of KRAS degradation ([2]; NCI-H23, 2.5 μM): sustained up to 72 hours
- time at which KRAS^G12C began to rebound ([2]; NCI-H23, 2.5 μM): 72 h
- time to maximal KRAS degradation ([2]; NCI-H23, 2.5 μM, 6, 24, 48, 72 hours): ≤ 24 h
- KRAS, two-way ANOVA significance vs DMSO ([2]; NCI-H23, 2.5 μM, 6 hours, FIG. 10B): ** (** p < 0.01)
- KRAS, two-way ANOVA significance vs DMSO ([2]; NCI-H23, 2.5 μM, 24 hours, FIG. 10B): **** (**** p < 0.001)
- KRAS, two-way ANOVA significance vs DMSO ([2]; NCI-H23, 10 μM, FIG. 9B): N.S.
- DC50 ([2]; NCI-H23, heterozygous KRAS^G12C): 0.25 ± 0.08 µM
- KRAS degradation ([2]; NCI-H23 cells, heterozygous): > 50%
- pErk [3]: suppressed
- Dmax ([1]; NCI-H2030): > 75%
- KRAS, two-way ANOVA significance vs DMSO ([1]; NCI-H2030, 0.1 μM): N.S.
- KRAS, two-way ANOVA significance vs DMSO ([1]; NCI-H2030, 0.25 μM): N.S.
- earliest time KRAS^G12C binding seen ([1]; NCI-H2030, 2.5 μM): 1 h
- time to maximum degradation ([1]; NCI-H2030, 2.5 μM): ≤ 8 h
- KRAS degradation ([1]; NCI-H2030, 2.5 μM, 4 hours): ~65%
- persistence of maximum degradation ([1]; NCI-H2030, 2.5 μM, 24 hour time course): persisted up to 24 hours
- DC50 [1, 4]: 0.59 ± 0.2 µM
- Dmax [1, 4]: >75%
- lowest concentration inducing maximal degradation of endogenous KRAS^G12C ([1]; NCI-H2030 cells): 2.5 µM
